Source: patent publication US8097656B2, “Nitrogenated trans-stilbene analogs, method for the obtention and medical applications thereof” (Dominion Pharmakine S.L, priority 2005, dated 2012)

How the values were obtained:
[1] = tested on: MB16 cells; experiment: Hydrogen peroxide production from MB16 cells (DCFH-DA probe); type: cell-based, murine; settings: 2.5 μM prior to IL-18; for H2O2 production by MB16 cells treated with IL-18: control 16.0 ± 3, IL-18 alone 34 ± 3.0
Description: Determination of hydrogen peroxide production from HSE and MB16 cells. Primary cultures of HSE cells were treated with 10 μg/ml of the DCFH-DA fluorescent probe for 30 minutes at 37° C. and were washed to eliminate the excess fluorochromium. Afterward, fresh culture medium was added thereto in the presence or absence of 2.5 μM of the compounds JE1:2, JE2:1 or JE2:2 and the production of H202 over the course of time was determined (see FIG. 5). The hydrogen peroxide produced by the cells oxidizes the probe, converting it into a fluorescent molecule. Thus, the cell fluorescence produced by the accumulation of DCF made it possible to detect the intracellular production of hydrogen peroxide. In each cell well, it was possible to determine the relative fluorescence value (arbitrary units of fluorescence brightness) in relation to the quantity of hydrogen peroxide produced at different incubation times. In the experiments with MB16 cells, once the cells had been marked with the DCFH-DA probe, they were incubated for 300 minutes with 2.5 μM of the azaresveratrol or JE2:2 compounds, 10 ng/ml of IL-18 (FIG. 4) then having been added.

[2] = tested on: human HSC; experiment: Proliferation of human HSCs treated with MC-MA375; type: cell-based; settings: for Increase in HSC proliferation in response to MC-A375 (in words): 12.5 μM 30 min prior to MC-A375; for Proliferation of human HSC's treated with MC-MA375 (No. cells per well): 12.5 μM, 30 min before MC-MA375, 48 h, control 2550 ± 22, treatment alone 4400 ± 30
Description: isolation of primary human cultures of hepatic sinusoidal endothelial (HSE) hepatic stellate cells (HSCs). The primary cultures of human HSE and HSC cells were obtained by non-tumoral hepatic tissue serial profusion with collagenase and pronase solutions, followed by Nycodenz gradient and seeded on 24-well plates (0.5×10^4 cells/cm^2) in DMEM. supplemented with 10% FBS.
HSC proliferation test. Primary cultured human HSC cultures were seeded (2500 cells/well/200 μl) in DMEM with 10% FBS. Once adhered, they were washed to remove the FBS and were incubated with fresh medium in the presence or absence of 12.5 μM of the azaresveratrol compound (see Table 3). Thirty (30) minutes later, conditioned media obtained from MA375 cells were added to some wells, and the plates were incubated for 48 hours in humid incubator at 37° C. with 5% CO2. Upon completion of the incubation time, the cells were fixed and were processed for counting just as previously described hereinabove.

[3] = tested on: MB16 cells; experiment: Adhesion of IL-18-treated MB16 cells to HSE cell monolayer; type: cell-based, murine; settings: for Adhesion of MB16 cells treated with IL-18 to HSE cells (% adhered cells): 2.5 μM for 30 min prior to IL-18, control 24.4 ± 4, IL-18 alone 54 ± 6.0; for Increase of the percentage of adhesion of tumor cells to the HSE in response to IL-18 (in words): 2.5 μM for 30 minutes prior to IL-18
Description: Isolation of primary murine cultures of hepatic sinusoidal endothelial (HSE) cells. The hepatic sinusoidal cells were isolated from C57BL/6J mice (males, aged 6-8 weeks) supplied by IFFA Credo (L'Arbreole, France), followed by a purification and identification of the HSE cells following the protocol described by Vidal-Vanaclocha et al. (1993) [Vidal-Vanaclocha, F., Rocha, M., Asumendi, A. & Barbera-Guillem, E. Isolation and enrichment of two sublobular compartment-specific endothelial cell subpopulations from liver sinusoids. Hepatology, 1993, 18, 328-339]. Stable primary cultures of HSE cells were obtained after seeding the cells on a type I collagen substrate (Sigma Chemicals Co, St Louis, Mo.), and the cultures were maintained in DMEM-HCO^3−, penicillin (100 U/ml), streptomycin (100 μg/ml), supplemented with 10% fetal bovine serum at 37° C. with 5% CO2 in atmosphere at 98% humidity.
MB16 cell adhesion to the monolayer of HSE cells in culture. The endothelial cells were isolated 24 hours prior to the adhesion test and were seeded on 24-well plate, maintaining them a minimum of 4 hours in serum-free medium before incubating them with DMEM in the presence or not of MC-MB16 for 8 hours. The synthesized compounds (JE2:2 see FIG. 6; JEM2:2-01 and JEM2:1-02 see FIG. 8A; YEF02, YEF03, YEF07, YEF05B, YEF07B and YEF05H see FIG. 10) were added to a 2.5 μM concentration prior to the MC-MB16. On the other hand, the MB16 cells were marked with 40 μg/ml from the fluorescent probe BCECF-AM (carboxyfluorescein, 2′,7′-bis-(2-carboxy-ethyl)-5-(6)carboxyfluorescein aminoxymethyl ester) supplied by Molecular Probes Inc. (Oregon, USA). Afterward, a washing process was performed with DMEM-HCO3−—to remove the excess fluorochromium, the number of viable cells being calculated by means of the trypan blue exclusion test and resuspended to a concentration of 2×10^5 cells/ml. Lastly, 1 ml of the MB16 cell suspension was added to each well on the primary HSE cell culture plate. The co-culture plates were incubator-incubated at 37° C. for 8 minutes. The percentage of cellular adhesion was calculated by means of the a fluorescence measurement system described by Vidal-Vanaclocha et al. (1994) [Vidal-Vanaclocha, F., Amézaga, C., Asumendi, A., Kaplanski, G. & Dinarello, C. A. Interleukin-1 receptor blockade reduces the number and size of murine B16 melanoma hepatic metastases. Cancer Research, 1994, 54, 2667-2672]. In the experiments with IL-18, the MB16 cells were incubated with 10 ng/ml of IL-18 for 4 hours prior to being marked with BCECF-AM and were adhered to the HSE cell plate. The results in the figures are given as values related to the adhesion percentages of the untreated HSE cells.

[4] = tested on: MB16-Luc cells; experiment: Hepatic retention of luciferase-transfected MB16 cells (MB16-Luc); type: in vivo, C57BL/6J mice; settings: 2 doses of 1 mg/kg/day nasogastrically; 18 h after intrasplenic injection; control 1.80 ± 0.23
Description: Test of hepatic retention of luciferase-transfected MB16 cells (MB16-Luc) (see Table 1). B16M Cells were stably transfected by lipofection as described previously (Rubio N, Martinez-Villacampa M, Blanco J. Traffic to lymph nodes of PC-3 prostate tumor cells in nude mice visualized using the luciferase gene as a tumor cell marker. Lab Invest 1998; 78:1315-1325), using plasmid pRc/cytomegalovirus-luciferase, a construct containing the Photinus pyralis luciferase gene coding sequence under transcriptional control of the cytomegalovirus promoter and the neomycin resistance gene to the G418 antibiotic (Sigma Chemicals Co.). A total of 300,000 viable B16M-Luc cells were intrasplenically injected into C57BL/6J mice (10 mice per group) which had previously been nasogastrically administered 2 doses of 1 mg/kg/day of compound to be tested. One group of mice received resveratrol, the other group of mice received azaresveratrol. […] Production of light was measured using a luminometer designed to read individual samples tubes (bioorbit, LKB Wallac; Turku, Finland) after the addition of 100 μl of luciferase assay reagent to 20 μl of each liver homogenate. […] Linearity and sensitivity of light detection in liver homogenates and influence of hepatic microenvironment on luciferase activity of B16M-Luc were also evaluated as described previously (Rubio et al, 1998).

Row | SMILES | Increase of H2O2 production of MB16 cells in response to IL-18 (in words) [1] | H2O2 production by MB16 cells treated with IL-18 [1] | Increase in HSC proliferation in response to MC-A375 (in words) [2] | Proliferation of human HSC's treated with MC-MA375 (No. cells per well) [2] | Adhesion of MB16 cells treated with IL-18 to HSE cells (% adhered cells) [3] | Increase of the percentage of adhesion of tumor cells to the HSE in response to IL-18 (in words) [3] | Hepatic retention of MB16 Luc cells (No. cells × 10^6) [4]
1 | Oc1ccc(/N=C/c2cc(O)cc(O)c2)cc1 [azaresveratrol, 5-((E)-(4-Hydroxyphenylimino)methyl)benzene-1,3-diol] | significantly (P<0.01) inhibited | 10 ± 2.0 | abrogated | 2600 ± 60 No. cells per well | 31 ± 4.0 % adhered cells | significantly (P<0.01) inhibited | 0.98 ± 0.24 No. cells × 10^6
2 | Oc1ccc(C=Cc2cc(O)cc(O)c2)cc1 [resveratrol, reference compound] | significantly (P<0.01) inhibited | 12 ± 1.0 | abrogated | 2250 ± 100 No. cells per well | 30 ± 4.0 % adhered cells | significantly (P<0.01) inhibited | 1.05 ± 0.3 No. cells × 10^6
